# Data: the supplement of paper PMC10307832
# Experiments:
# Assay in all cases: relative viability (nuclei count vs DMSO), 5 days (fraction); higher = more cells survive
# [1] = compound: C1COCCN1C2=NC(=NC3=C2OC4=C3C=CC=N4)C5=CC(=CC=C5)NC(=O)C6=CN=C(C=C6)N + Cc1cc(Nc2cc(N3CCN(C)CC3)nc(Sc3ccc(NC(=O)C4CC4)cc3)n2)n[nH]1 [Tozasertib] (partner 0.1 µM)
# Summary of the method: (§1)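 Lung cancer cell lines were pin-tool dosed in 1536-well plates on the day after seeding, with either a lone drug or a fixed anchor-drug dose plus five library-drug doses (not always all listed) in √10 steps. Nuclei were counted on 4× images after 5 days. Relative viability is the ratio of treated-well to vehicle-well nuclei counts, with each value a median of duplicate plates.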
# SGI-1776 + Phenformin = compound: CN1CCC(CNc2ccc3ncc(-c4cccc(OC(F)(F)F)c4)n3n2)CC1 [SGI-1776] + N=C(N)NC(=N)NCCc1ccccc1 [Phenformin] (partner 250 µM)
# Summary of the method: as §1
# Entinostat + Palbociclib = compound: Nc1ccccc1NC(=O)c1ccc(CNC(=O)OCc2cccnc2)cc1 [Entinostat] + CC(=O)c1c(C)c2cnc(Nc3ccc(N4CCNCC4)cn3)nc2n(C2CCCC2)c1=O [Palbociclib] (partner 0.5 µM)
# Summary of the method: as §1
# [2] = compound: C1COCCN1C2=NC(=NC3=C2OC4=C3C=CC=N4)C5=CC(=CC=C5)NC(=O)C6=CN=C(C=C6)N + COc1cccc2cc(-c3nc([C@H]4CC[C@H](C(=O)O)CC4)n4ncnc(N)c34)[nH]c12 [OSI-027] (partner 0.5 µM)
# Summary of the method: as §1
cell line,measurement,setting,value
UMC-11,relative viability,[1]; first compound 0.02 µM,0.205
same,relative viability,[1]; first compound 0.06325 µM,0.188
same,relative viability,[1]; first compound 0.2 µM,0.193
same,relative viability,[1]; first compound 0.6325 µM,0.182
same,relative viability,[1]; first compound 2 µM,0.177
same,relative viability,SGI-1776 + Phenformin; first compound 0.08 µM,0.31
same,relative viability,SGI-1776 + Phenformin; first compound 0.8 µM,0.322
same,relative viability,SGI-1776 + Phenformin; first compound 2.53 µM,0.302
same,relative viability,SGI-1776 + Phenformin; first compound 8 µM,0.252
same,relative viability,Entinostat + Palbociclib; first compound 0.02 µM,0.367
same,relative viability,Entinostat + Palbociclib; first compound 0.06325 µM,0.338
same,relative viability,Entinostat + Palbociclib; first compound 0.2 µM,0.367
same,relative viability,Entinostat + Palbociclib; first compound 0.6325 µM,0.274
same,relative viability,Entinostat + Palbociclib; first compound 2 µM,0.202
same,relative viability,[2]; first compound 0.02 µM,0.443
same,relative viability,[2]; first compound 0.06325 µM,0.511
same,relative viability,[2]; first compound 0.2 µM,0.46
same,relative viability,[2]; first compound 0.6325 µM,0.406
same,relative viability,[2]; first compound 2 µM,0.375
